Source: article PMC10148624, “Discovery of diarylpyrimidine derivatives bearing piperazine sulfonyl as potent HIV-1 nonnucleoside reverse transcriptase inhibitors” (Communications Chemistry, 2023)
Where two headings read alike, the source gives them in different places. Marks after values point to notes of the source that are not given here.

How the values were obtained:
HIV-1 K103N = assay: Anti-HIV-1 activity against K103N mutant strain, MTT method in MT-4 cells; type: cell-based; conditions: Human immunodeficiency virus 1, MT4, read-out: EC50 K103N
Excerpt: (§1) According to the anti-HIV-1(WT) results, the promising compounds 18a(1–5), 18b(1–5) and 18c1 were chosen to further evaluate their inhibitory potency against the prevalent HIV-1 mutations, including L100I, K103N, Y181C, Y188L, E138K, and F227L/V106A. […]. page 20:
(§2) or mock-infected wells of the microtiter tray. Mock-infected cells were used to evaluate
(§3) supernatant was discarded.
(§4) Five days after infection,
(§5) 4 cells by 50%. […]

HIV-1 L100I = assay: microbe, parasite or virus in culture; type: cell-based; conditions: Human immunodeficiency virus 1, MT4, read-out: EC50 L100I
Procedure: (§6) compounds were made directly in flat-bottomed 96-well microtiter trays by adding 100 μL medium to the 25 μL stock solution and transferring 25 μL of this solution to another well that contained 100 μL medium using a Biomek 3000 robot (Beckman Instruments, Fullerton, CA). Untreated control HIV- and mock-infected cell samples were included for each sample. HIV-1 WT strain (IIIB), HIV-1 drug-resistant strains including […]
(§7) (50% cell culture infectious dose) or culture medium was added to either the infected or mock-infected wells of the microtiter tray. Mock-infected cells were used to evaluate the effect of test compounds on uninfected cells in order to assess its cytotoxicity.
(§8) Exponentially growing MT-4 cells were centrifuged for 5 min at 1000 rpm and the supernatant was discarded.
(§9) 50 μL volumes were transferred to the microtiter tray wells. Five days after infection, the viability of mock- and HIV-infected cells was examined spectrophotometrically by […]
(§10) concentration of the test compound that reduced the viability of the mock-infected MT- […]

HIV-1 E138K = assay: microbe, parasite or virus in culture; type: cell-based; conditions: Human immunodeficiency virus 1, MT4, read-out: EC50 E138K
Procedure: as §6, §7, §8, §9, §10

HIV-1 WT (IIIB) [1] = assay: microbe, parasite or virus in culture; type: cell-based; conditions: for EC50: Human immunodeficiency virus 1, IIIB, MT4, MT-4 cells, MTT method, mean ± SD, n ≥ 4, read-out: EC50 IIIB
Procedure: (§11) The biological results were determined as EC50 (anti-HIV potency), CC50 (cytotoxicity) and SI (selectivity index, the ratio of CC50/EC50). […]
as §6, §7, §8, §9, §10

[2] = system: HIV-1 K103N/Y181C double mutant (RES056); assay: microbe, parasite or virus in culture; type: cell-based; conditions: Human immunodeficiency virus 1, MT4, read-out: EC50 RES056
Procedure: as §11, §6, §7, §8, §9, §10

HIV-1 F227L/V106A = assay: Anti-HIV-1 activity against F227L/V106A mutant strain, MTT method in MT-4 cells; type: cell-based; conditions: Human immunodeficiency virus 1, MT4, read-out: EC50 F227L/V106A
Excerpt: as §1, §2, §3, §4, §5

HIV-1 Y188L = assay: Anti-HIV-1 activity against Y188L mutant strain, MTT method in MT-4 cells; type: cell-based; conditions: Human immunodeficiency virus 1, MT4, read-out: EC50 Y188L
Excerpt: as §1, §2, §3, §4, §5

[3] = Cytotoxicity in mock-infected MT-4 cells, MTT method; conditions: human
Procedure: as §11, §6, §7, §8, §9, §10

[4] = at pH 7.0; cited from earlier work
CYP2D6 = CYP2D6 (Homo sapiens, UniProt P10635); assay: in vitro
Chain of CYP2D6 (P10635 whole entry): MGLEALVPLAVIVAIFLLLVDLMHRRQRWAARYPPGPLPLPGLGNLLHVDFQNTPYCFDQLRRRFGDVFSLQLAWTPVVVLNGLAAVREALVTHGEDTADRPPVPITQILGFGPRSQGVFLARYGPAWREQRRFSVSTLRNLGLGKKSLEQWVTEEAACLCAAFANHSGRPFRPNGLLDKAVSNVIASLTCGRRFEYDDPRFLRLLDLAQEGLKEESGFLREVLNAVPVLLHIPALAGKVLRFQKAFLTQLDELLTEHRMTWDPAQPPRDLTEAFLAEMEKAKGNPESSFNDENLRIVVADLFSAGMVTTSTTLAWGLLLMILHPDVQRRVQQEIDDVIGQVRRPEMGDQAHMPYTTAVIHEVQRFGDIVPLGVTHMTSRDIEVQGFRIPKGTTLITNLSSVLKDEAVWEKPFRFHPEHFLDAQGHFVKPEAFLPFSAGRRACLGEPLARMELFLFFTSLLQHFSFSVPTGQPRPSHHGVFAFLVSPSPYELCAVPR
Procedure: Fig. S3 Decomposition of the binding free energy (per-residue) into contributions from electrostatic energy, vdw energy, polar solvation energy, and non-polar solvation energy. a K103N-18b1. b […]
Section 7. Water solubility measurements
Water solubility was measured in phosphate buffer at pH 7.0 by using an HPLC-UV method.17 Compounds were initially dissolved in DMSO at 10 mg/mL 10 μL of this stock solution was spiked into purified water (1 mL) with the final DMSO concentration being 1%. The mixture was ultrasonic for 2 h at room temperature and restored at room temperature overnight. The saturated solution was filtrated through a filter membrane (pore size = 0.22 μm) and transferred to other Eppendorf tubes for analysis by HPLC-UV. The sample was performed in triplicate. For quantification, a model LC-20AT HPLC-UV (SHIMADZU) system was used with an Inertsil ® ODS-SP-C18 column (150 mm × 4.6 mm, 5 μm) and MeOH/water as eluant. The flow rate was 1.0 mL/min, and injection volume was 20 μL. Aqueous concentration was determined by comparison of the peak area of the saturated solution with a standard curve plotted peak area versus known concentrations, which were prepared by solutions in MeOH at 200, […]
(§12) Section 8. CYP enzyme inhibition assay […]
Section 9. Pharmacokinetics studies […]
approval from the Animal Ethical and Welfare Committee (AEWC). Ten male […]
Blood samples (200 μL of blood
Briefly, 50 μL of plasma was […]
tube, which was centrifuged at 3000g for 10 min. The supernatant layer was collected […]
Standard curves for 18b1 in […]
with an internal standard to blank plasma. Then all samples were quantified with an […]

HIV-1 Y181C = assay: Anti-HIV-1 activity against Y181C mutant strain, MTT method in MT-4 cells; type: cell-based; conditions: Human immunodeficiency virus 1, MT4, read-out: EC50 Y181C, MT-4 cells, MTT method, mean ± SD, n ≥ 4
Excerpt: as §2, §3, §4, §5

CYP2C9 = CYP2C9 (Homo sapiens, UniProt P11712); assay: CYP enzyme inhibition assay in human liver microsome, CYP2C9; conditions: read-out: IC50 CYP2C9; human liver microsome, probe substrate diclofenac
Chain of CYP2C9 (P11712 whole entry): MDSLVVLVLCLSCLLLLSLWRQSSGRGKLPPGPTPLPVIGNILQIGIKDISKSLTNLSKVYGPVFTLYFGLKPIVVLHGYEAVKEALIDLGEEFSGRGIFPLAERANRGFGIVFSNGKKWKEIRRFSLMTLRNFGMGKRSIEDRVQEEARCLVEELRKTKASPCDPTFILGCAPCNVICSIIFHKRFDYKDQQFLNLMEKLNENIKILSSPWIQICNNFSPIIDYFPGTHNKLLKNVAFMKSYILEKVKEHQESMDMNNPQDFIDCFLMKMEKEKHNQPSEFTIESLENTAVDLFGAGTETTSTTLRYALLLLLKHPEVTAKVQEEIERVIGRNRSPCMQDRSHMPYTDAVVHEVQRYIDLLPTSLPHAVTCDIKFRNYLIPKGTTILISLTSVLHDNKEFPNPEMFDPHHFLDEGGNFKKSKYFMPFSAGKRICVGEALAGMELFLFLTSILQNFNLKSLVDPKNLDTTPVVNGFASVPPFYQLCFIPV
Excerpt: as §12
(§13) Agilent 1200 LC/MSD (Agilent, USA).

CYP1A2 = molecular target: T1, CYP1A2 (Homo sapiens, UniProt P05177); assay: in vitro; conditions: microsomes
T1 sequence (P05177 1-516): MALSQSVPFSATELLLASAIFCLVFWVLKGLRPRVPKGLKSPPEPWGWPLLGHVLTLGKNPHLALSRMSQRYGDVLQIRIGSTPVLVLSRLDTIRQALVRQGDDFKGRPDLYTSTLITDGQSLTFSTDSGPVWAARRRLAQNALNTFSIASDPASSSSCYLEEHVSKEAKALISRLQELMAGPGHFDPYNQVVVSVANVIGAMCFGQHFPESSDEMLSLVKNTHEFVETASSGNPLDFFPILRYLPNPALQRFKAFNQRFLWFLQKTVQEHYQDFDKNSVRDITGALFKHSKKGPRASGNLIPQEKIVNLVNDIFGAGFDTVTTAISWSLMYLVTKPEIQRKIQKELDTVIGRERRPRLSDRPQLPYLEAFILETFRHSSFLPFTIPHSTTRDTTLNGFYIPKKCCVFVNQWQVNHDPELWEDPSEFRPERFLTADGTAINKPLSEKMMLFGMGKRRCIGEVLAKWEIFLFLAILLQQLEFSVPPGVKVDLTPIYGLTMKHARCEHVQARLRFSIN
Excerpt: as §12, §13

CYP2C19 = CYP2C19 (Homo sapiens, UniProt P33261); assay: CYP enzyme inhibition assay in human liver microsome, CYP2C19; conditions: read-out: IC50 CYP2C19; human liver microsome, probe substrate S-mephenytoin
Chain of CYP2C19 (P33261 whole entry): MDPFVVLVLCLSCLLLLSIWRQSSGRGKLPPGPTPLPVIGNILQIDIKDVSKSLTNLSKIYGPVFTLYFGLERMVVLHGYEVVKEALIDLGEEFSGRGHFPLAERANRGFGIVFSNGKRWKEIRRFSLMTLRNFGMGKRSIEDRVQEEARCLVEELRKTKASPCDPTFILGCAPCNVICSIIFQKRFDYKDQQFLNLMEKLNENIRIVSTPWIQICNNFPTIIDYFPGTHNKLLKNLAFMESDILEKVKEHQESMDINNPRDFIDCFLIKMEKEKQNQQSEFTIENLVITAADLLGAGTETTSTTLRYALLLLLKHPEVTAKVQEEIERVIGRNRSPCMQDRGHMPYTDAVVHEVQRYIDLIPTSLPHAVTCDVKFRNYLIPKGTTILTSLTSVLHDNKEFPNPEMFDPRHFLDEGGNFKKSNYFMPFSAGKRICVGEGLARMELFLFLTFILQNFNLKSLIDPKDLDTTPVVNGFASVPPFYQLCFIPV
Excerpt: as §12, §13

CYP3A4 = CYP3A4 (Homo sapiens, UniProt P08684); assay: in vitro; conditions: microsomes
Chain of CYP3A4 (P08684 whole entry): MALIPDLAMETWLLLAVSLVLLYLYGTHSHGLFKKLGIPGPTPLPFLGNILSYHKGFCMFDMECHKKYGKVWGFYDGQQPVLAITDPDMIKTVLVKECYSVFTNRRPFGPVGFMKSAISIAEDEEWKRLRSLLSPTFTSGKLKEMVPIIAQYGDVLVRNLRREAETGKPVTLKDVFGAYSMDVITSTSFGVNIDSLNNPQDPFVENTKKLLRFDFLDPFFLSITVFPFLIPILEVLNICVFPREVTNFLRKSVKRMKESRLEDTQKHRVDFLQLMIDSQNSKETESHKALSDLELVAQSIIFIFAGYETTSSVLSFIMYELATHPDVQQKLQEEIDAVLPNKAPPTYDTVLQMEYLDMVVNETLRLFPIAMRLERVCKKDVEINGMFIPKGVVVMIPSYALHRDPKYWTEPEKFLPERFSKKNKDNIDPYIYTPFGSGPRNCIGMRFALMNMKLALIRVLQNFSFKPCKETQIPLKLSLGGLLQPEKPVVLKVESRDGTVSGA
Excerpt: as §12, §13

[5] = design: method as in PMID 24008177; conditions: cited from earlier work
WT HIV-1 RT = molecular target: T2, WT HIV-1 RT (Human immunodeficiency virus type 1 group M subtype B, UniProt P04585); assay: biochemical
T2 construct: purchased Roche
Procedure: Section 4. HIV-1 RT inhibition assays
A reverse transcriptase (RT) assay kit produced by Roche was selected for the RT inhibition assay.3 All the reagents for performing the RT reaction came with the kit and the ELSIA procedures for RT inhibition assay was carried out following the description in the kit protocol. Briefly, the reaction mixture containing template/primer complex, viral nucleotides (dNTPs) and RT in the incubation buffer with or without inhibitors was incubated for 1 h at 37 °C . After that, the reaction mixture was transferred to a streptavidine coated microtiter plate and incubated for another 1 h at 37 °C to make sure retranscriptional cDNA chain that consisted biotin labeled dNTPs bound to streptavidine. Then unbound dNTPs were removed using washing buffer and anti-DIG-POD working solution was added. After incubation for 1 h at 37 °C , the DIG-labeled dNTPs incorporated in cDNA were bound to the anti-DIG-POD antibody. The unbound

HIV-1 WT (IIIB) [6] = conditions: MT-4 cells, MTT method; same laboratory, same method; cited from earlier work

| SMILES | EC50 (HIV-1 K103N) [nM] | EC50 (HIV-1 L100I) [nM] | EC50 (HIV-1 E138K) [nM] | EC50 (HIV-1 WT (IIIB) [1]) [nM] | EC50 [2] [nM] | EC50 (HIV-1 F227L/V106A) [nM] | EC50 (HIV-1 Y188L) [nM] | CC50 at 5 days [3] [nM] | water solubility [4] | IC50 at 10 min (CYP2D6; human, microsomes, IC50 CYP2D6) [nM] | IC50 (CYP2D6; read-out: IC50 CYP2D6, human liver microsome, probe substrate dextromethorphan) [nM] | EC50 (HIV-1 Y181C) [nM] | IC50 (CYP2C9) [nM] | IC50 at 10 min (CYP1A2) [nM] | IC50 (CYP2C19) [nM] | IC50 at 10 min (CYP3A4) [nM] | oral bioavailability (F) [5] | IC50 (WT HIV-1 RT) [nM] | SI IIIB (HIV-1 WT (IIIB) [1]; selectivity index, ratio of CC50/EC50) | EC50 (HIV-1 WT (IIIB) [6]) [nM] |
| --- | --- | --- | --- | --- | --- | --- | --- | --- | --- | --- | --- | --- | --- | --- | --- | --- | --- | --- | --- | --- |
| O=C1Nc2ccc(Cl)cc2[C@@](C#CC2CC2)(C(F)(F)F)O1 [EFV, efavirenz] | 120 ± 24 | 53 ± 28 | 6.5 ± 1.7 | 3.7 ± 0.67 | 300 ± 190 | 260 ± 100 | 250 ± 56 | > 6330 |  |  |  |  |  |  |  |  |  |  |  |  |
| Cc1cc(C#N)cc(C)c1Oc1nc(Nc2ccc(C#N)cc2)nc(N)c1Br [ETR, etravirine] | 4.3 ± 1 |  | 18 ± 7.2 | 3.3 ± 0.38 | 76 ± 25 | 25 ± 7.2 | 25 ± 7.6 |  | <1^e μg/mL | > 10000 | 12000 | 18 ± 3.8 | 277 | > 10000 | 496 | > 10000 | undetectable | 1350 ± 350 |  |  |
| CCS(=O)(=O)N1CCN(c2ccc(Nc3nccc(Oc4c(C)cc(C#N)cc4C)n3)cc2C#N)CC1 [Compound 17b2] |  |  |  | 6.6 ± 1.7 | > 241000 |  |  | > 241000 |  |  |  |  |  |  |  |  |  |  | >36,585 |  |
| Cc1ccnc2c1NC(=O)c1cccnc1N2C1CC1 [NVP, Nevirapine] | 6040 ± 2660 | 2230 ± 980 |  | 190 ± 76 | > 15000 | > 15000 | > 15000 | > 15000 |  |  |  | 7400 ± 1780 |  |  |  |  |  |  |  |  |
| Cc1cc(/C=C/C#N)cc(C)c1Nc1ccnc(Nc2ccc(C#N)cc2)n1 [RPV, rilpivirine] |  |  |  |  |  |  |  |  |  |  |  |  |  |  |  |  |  | 430 ± 87 |  | 1 ± 0.27 |
